Assay: Blood cell counts of GT3 liposome treated mice after ionizing radiation
Assay type: in vivo, C57/B6 mice
Settings: after exposure to 2 or 4 Gy
Procedure: FIGS. 28A and 28B show blood cell counts of GT3 liposome treated mice after ionization radiation. White blood cell (WBC) (FIG. 28A) and lymph (FIG. 28B) counts are shown for mice treated with 2 Gy+GT3 containing liposomes, 2 Gy, 4 Gy+GT3 containing liposomes, and 4 Gy.
C57/B6 mice were treated with GT3 containing BMT liposomes with 10 mg/kg GT3 at 24 h prior to 2 and 4 Gy. Blood cells were counted at 0, 1, 4, 6, 13 days after irradiation. […] Lymphocyte recovery is the most significant. […] This effect was not seen when GT3 was not targeted to the bone marrow.

## CC(C)=CCC/C(C)=C/CC/C(C)=C/CC[C@]1(C)CCc2cc(O)c(C)c(C)c2O1 [GT3]
  recovery of lymphocyte and neutrophils: not seen

Reference: patent US11633502B2, “Bone marrow-, reticuloendothelial system-, and/or lymph node-targeted radiolabeled liposomes and methods of their diagnostic and therapeutic use” (Memorial Sloan Kettering Cancer Center, priority 2016, dated 2023)
